Test results: US12612380B2, “Non-lysosomal glucosylceramidase inhibitors and uses thereof” (ALECTOS THERAPEUTICS INC., priority 2019, dated 2026)
Where two headings read alike, the source gives them in different places.

Experiments:
GBA2 [1] = target: T1, GBA2 (Homo sapiens, UniProt Q9HCG7); experiment: Binding specificity (selectivity) for GBA2 over other enzymes; type: biochemical; conditions: compared to a suitable reference compound, e.g. NB-DNJ (miglustat) or AMP-DNM
T1 sequence (Q9HCG7 1-927): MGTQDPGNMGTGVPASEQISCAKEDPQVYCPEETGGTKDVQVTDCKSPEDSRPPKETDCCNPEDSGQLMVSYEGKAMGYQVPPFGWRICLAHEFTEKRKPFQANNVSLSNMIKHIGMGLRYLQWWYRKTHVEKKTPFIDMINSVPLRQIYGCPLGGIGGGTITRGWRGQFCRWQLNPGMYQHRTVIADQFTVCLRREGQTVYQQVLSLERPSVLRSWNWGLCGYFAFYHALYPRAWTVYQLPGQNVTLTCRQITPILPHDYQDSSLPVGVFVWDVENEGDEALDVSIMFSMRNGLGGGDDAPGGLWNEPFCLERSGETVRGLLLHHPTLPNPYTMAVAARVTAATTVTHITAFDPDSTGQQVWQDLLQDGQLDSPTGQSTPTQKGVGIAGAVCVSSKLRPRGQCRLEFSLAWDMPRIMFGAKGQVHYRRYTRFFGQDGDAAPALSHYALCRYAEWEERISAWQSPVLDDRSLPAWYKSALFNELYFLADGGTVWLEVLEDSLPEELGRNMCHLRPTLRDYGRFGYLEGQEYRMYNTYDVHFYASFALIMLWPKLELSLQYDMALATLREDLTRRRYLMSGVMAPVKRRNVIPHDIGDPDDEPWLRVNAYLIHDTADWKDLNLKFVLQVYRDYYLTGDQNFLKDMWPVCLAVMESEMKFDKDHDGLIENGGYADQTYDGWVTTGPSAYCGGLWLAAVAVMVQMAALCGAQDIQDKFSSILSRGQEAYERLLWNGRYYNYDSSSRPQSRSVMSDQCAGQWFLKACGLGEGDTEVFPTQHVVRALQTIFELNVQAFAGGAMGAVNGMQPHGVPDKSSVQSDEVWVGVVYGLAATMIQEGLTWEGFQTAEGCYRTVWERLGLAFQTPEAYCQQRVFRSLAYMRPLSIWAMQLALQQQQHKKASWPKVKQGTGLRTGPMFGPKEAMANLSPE
From the text: In some embodiments, one or more of the compounds according to the invention may specifically bind a GBA2. In alternative embodiments, one or more of the compounds according to the invention may specifically bind the active site of a GBA2. […] In alternative embodiments, one or more of the compounds according to the invention may specifically bind the human non-lysosomal glucosylceramidase (GBA2) over the human lysosomal glucosylceramidase (GCase) and/or the human cytosolic glucosylceramidase (GBA3). In alternative embodiments, one or more of the compounds according to the invention may specifically bind the human non-lysosomal glucosylceramidase (GBA2) over the human glucosylceramide synthase (GCS). In alternative embodiments, one or more of the compounds according to the invention may specifically bind the human non-lysosomal glucosylceramidase (GBA2) over an intestinal alpha-glucosidase, where the intestinal alpha-glucosidase may be a sucrase-isomaltase or a maltase-glucoamylase.

GBA2 [2] = target: T1, GBA2; experiment: Determination of IC50 values for inhibition of GBA2 in cell lysate; type: biochemical; set-up: host or cells: HEK293T (lentiviral transduction, puromycin selection); used as cellular homogenate
Procedure, shortened: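 Homogenate of HEK293T cells stably overexpressing human GBA2 (0.083 mg/mL final), pretreated with 20 μM GCase inhibitor, preincubated 5 min at 37 °C with compound, then reacted 20 min with 250 μM 4-methylumbelliferyl-β-D-glucopyranoside at pH 5.5 (citrate-phosphate, 1% C10E6). Fluorescence read at 365/450 nm after alkaline stop; IC50 from log-inhibitor curve fit.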

[3] = cellular homogenate of HEK293T cells overexpressing human GBA2, 250 μM 4-methylumbelliferone-β-D glucopyranoside, pH 5.5, 37° C., GCase inhibitor present, read-out: GBA2 IC50

| SMILES | binding specificity (IC50 or Ki of other molecule / GBA2) (GBA2 [1]) | IC50 (GBA2 [2]; [3]) [nM] | IC50 (GBA2 [2]) [nM] |
| --- | --- | --- | --- |
| CC(C)c1cc(F)c(CCN2C[C@H](O)[C@@H](O)[C@H](O)[C@H]2C)c(F)c1 [Example 51, (2R,3R,4R,5S)-1-(2,6-difluoro-4-isopropylphenethyl)-2-methylpiperidine-3,4,5-triol] | enhanced binding specificity | – | < 100 |
| C[C@@H]1[C@@H](O)[C@H](O)[C@@H](O)CN1CCc1c(F)cc(C(F)(F)F)cc1F [Example 55, (2R,3R,4R,5S)-1-(2,6-difluoro-4-(trifluoromethyl)phenethyl)-2-methylpiperidine-3,4,5-triol] | enhanced binding specificity | – | 100 to 1000 |
| C[C@@H]1[C@@H](O)[C@H](O)[C@@H](O)CN1C[C@H]1CCN(c2ccccc2OC(F)(F)F)C1 [Example 118, (2R,3R,4R,5S)-2-methyl-1-(((R)-1-(2-(trifluoromethoxy)phenyl)pyrrolidin-3-yl)methyl)piperidine-3,4,5-triol] | enhanced binding specificity | < 100 | – |
| C[C@@H]1[C@@H](O)[C@H](O)[C@@H](O)CN1C[C@H]1CCCN(c2ccccc2F)C1 [Example 137, (2R,3R,4R,5S)-1-(((R)-1-(2-fluorophenyl)piperidin-3-yl)methyl)-2-methylpiperidine-3,4,5-triol] | enhanced binding specificity | < 100 | – |
| C[C@@H]1[C@@H](O)[C@H](O)[C@@H](O)CN1C[C@H]1CCN(c2cccc(F)c2)C1 [Example 117, (2R,3R,4R,5S)-1-(((R)-1-(3-fluorophenyl)pyrrolidin-3-yl)methyl)-2-methylpiperidine-3,4,5-triol] | enhanced binding specificity | < 100 | – |
| C[C@@H]1[C@@H](O)[C@H](O)[C@@H](O)CN1CC1CCC2(CCC2)CC1 [Example 24, (2R,3R,4R,5S)-2-methyl-1-(spiro[3.5]nonan-7-ylmethyl)piperidine-3,4,5-triol] | enhanced binding specificity | < 100 | – |
| CC(C)c1ccc(F)c(CCN2C[C@H](O)[C@@H](O)[C@H](O)[C@H]2C)c1F [Example 52, (2R,3R,4R,5S)-1-(2,6-difluoro-3-isopropylphenethyl)-2-methylpiperidine-3,4,5-triol] | enhanced binding specificity | – | < 100 |
| C[C@@H]1[C@@H](O)[C@H](O)[C@@H](O)CN1CCc1c(F)cc(N2CCOCC2)cc1F [Example 58, (2R,3R,4R,5S)-1-(2,6-difluoro-4-morpholinophenethyl)-2-methylpiperidine-3,4,5-triol] | enhanced binding specificity | < 100 | – |

Continued, in another order:

| binding specificity (IC50 or Ki of other molecule / GBA2) (GBA2 [1]) | IC50 (GBA2 [2]; [3]) [nM] | SMILES | IC50 (GBA2 [2]) [nM] |
| --- | --- | --- | --- |
| enhanced binding specificity | < 100 | C[C@@H]1[C@@H](O)[C@H](O)[C@@H](O)CN1C[C@H]1CC[C@@H](C(C)(C)F)CC1 [Example 13, (2R,3R,4R,5S)-1-(((1s,4S)-4-(2-fluoropropan-2-yl)cyclohexyl)methyl)-2-methylpiperidine-3,4,5-triol] | – |
| enhanced binding specificity | < 100 | C[C@@H]1[C@@H](O)[C@H](O)[C@@H](O)CN1C[C@@H]1CCN(c2ccccc2C(F)(F)F)C1 [Example 131, (2R,3R,4R,5S)-2-methyl-1-(((S)-1-(2-(trifluoromethyl)phenyl)pyrrolidin-3-yl)methyl)piperidine-3,4,5-triol] | – |
| enhanced binding specificity | < 100 | C[C@@H]1[C@@H](O)[C@H](O)[C@@H](O)CN1C[C@@H]1CCCN(c2cnccc2C(F)(F)F)C1 [Example 142, (2R,3R,4R,5S)-2-methyl-1-(((S)-1-(4-(trifluoromethyl)pyridin-3-yl)piperidin-3-yl)methyl)piperidine-3,4,5-triol] | – |
| enhanced binding specificity | < 100 | C[C@@H]1[C@@H](O)[C@H](O)[C@@H](O)CN1C[C@H]1CCCN(c2ncccc2C(F)(F)F)C1 [Example 138, (2R,3R,4R,5S)-2-methyl-1-(((R)-1-(3-(trifluoromethyl)pyridin-2-yl)piperidin-3-yl)methyl)piperidine-3,4,5-triol] | – |
| enhanced binding specificity | < 100 | C[C@@H]1[C@@H](O)[C@H](O)[C@@H](O)CN1C[C@H]1CCN(c2cccc3scnc23)C1 [Example 129, (2R,3R,4R,5S)-1-(((R)-1-(benzo[d]thiazol-4-yl)pyrrolidin-3-yl)methyl)-2-methylpiperidine-3,4,5-triol] | – |
| enhanced binding specificity | < 100 | C[C@@H]1[C@@H](O)[C@H](O)[C@@H](O)CN1C[C@H]1CCCN(c2cccc(C(F)(F)F)n2)C1 [Example 139, (2R,3R,4R,5S)-2-methyl-1-(((R)-1-(6-(trifluoromethyl)pyridin-2-yl)piperidin-3-yl)methyl)piperidine-3,4,5-triol] | – |
| enhanced binding specificity | < 100 | C[C@@H]1[C@@H](O)[C@H](O)[C@@H](O)CN1C[C@H]1CC[C@@H](C(C)(C)C)CC1 [Example 9, (2R,3R,4R,5S)-1-(((1s,4S)-4-(tert-butyl)cyclohexyl)methyl)-2-methylpiperidine-3,4,5-triol] | – |
| enhanced binding specificity | < 100 | C[C@@H]1[C@@H](O)[C@H](O)[C@@H](O)CN1C[C@@H]1CCCN(c2ncccc2C(F)(F)F)C1 [Example 141, (2R,3R,4R,5S)-2-methyl-1-(((S)-1-(3-(trifluoromethyl)pyridin-2-yl)piperidin-3-yl)methyl)piperidine-3,4,5-triol] | – |
| enhanced binding specificity | < 100 | O[C@H]1[C@H](O)[C@@H](O)CN(CCc2c(F)cc(-c3ccccc3)cc2F)[C@@H]1CF [Example 151, (2S,3R,4R,5S)-1-(2-(3,5-difluoro-[1,1′-biphenyl]-4-yl)ethyl)-2-(fluoromethyl)piperidine-3,4,5-triol] | – |
| enhanced binding specificity | < 100 | C[C@@H]1[C@@H](O)[C@H](O)[C@@H](O)CN1C[C@H]1CCCN(c2cnccc2C(F)(F)F)C1 [Example 140, (2R,3R,4R,5S)-2-methyl-1-(((R)-1-(4-(trifluoromethyl)pyridin-3-yl)piperidin-3-yl)methyl)piperidine-3,4,5-triol] | – |
| enhanced binding specificity | < 100 | C[C@@H]1[C@@H](O)[C@H](O)[C@@H](O)CN1C[C@H]1CCN(c2ccccc2F)C1 [Example 116, (2R,3R,4R,5S)-1-(((R)-1-(2-fluorophenyl)pyrrolidin-3-yl)methyl)-2-methylpiperidine-3,4,5-triol] | – |
| enhanced binding specificity | < 100 | Cc1ccccc1N1CC[C@H](CN2C[C@H](O)[C@@H](O)[C@H](O)[C@H]2C)C1 [Example 114, (2R,3R,4R,5S)-2-methyl-1-(((R)-1-(o-tolyl)pyrrolidin-3-yl)methyl)piperidine-3,4,5-triol] | – |
